How the values were obtained:
TNBC cells = experiment: ER stress induction in TNBC cells (electron microscopy, western blots); assay type: cell-based
Procedure: FIGS. 36A-H: ERX-41 induces ER stress in TNBC. (FIGS. 36A-C) Volcano plots show the relative effect of 4 h treatment of 1 μM ERX-41 compared to vehicle in MDA-MB-231 (FIG. 36A), BT-549 (FIG. 36B) TNBC and HMEC (FIG. 36C) cell lines. (FIG. 36D) Gene ontology analyses show the top regulated pathways. (FIG. 36E) Heatmap of the top ER stress and UPR genes in these three TNBC cell lines after 2 h and 4 h treatment with 1 μM ERX-41 treatment. […] (FIG. 36G) Time course of the effect of 1 μM ERX-41 on the mRNA expression of canonical ER stress genes, HSPAS and DDIT3 and UPR stress sensor-sXBP1 in MDA-MB-231, BT-549 and HMEC cells.
The basal level of expression of endoplasmic reticulum stress and unfolded protein response correlates with TK41 activity (FIG. 28). Modulation of the level of these stress proteins affects the activity of TK41. Thus, the basal level of expression of endoplasmic reticulum stress and unfolded protein response proteins may serve as a biomarker to predict response to TK41. […] Without wishing to be bound by any particular theory, the mechanism of action of TK41 may operate comprise targeting either ER or TLX and inducing endoplasmic reticulum stress, subsequent apoptosis, and blocking autophagic fusion (FIG. 30).
ERX-41 induces endoplasmic reticulum stress in TNBC. To understand the mechanism of action of ERX-41 in TNBC, the inventors performed unbiased RNA sequencing studies in three TNBC (SUM-159, MDA-MB-231, and BT549) and normal HMEC cell lines (FIGS. 36A-C). […] Heatmaps show the induction of ER stress and UPR genes in these three TNBC cell lines (FIG. 36E). Evaluation of ER stress induction was then performed with ultrastructural studies using electron microscopy (EM) studies.

TNBC cells with LIPA KO = experiment: Response of LIPA knockout TNBC cells, CellTiter-Glo; assay type: cell-based; settings: LIPA KO clones
Text: FIGS. 37A-J: The molecular target of ERX-41 in TNBC is LIPA. […] (FIG. 37B) Knockout clones of LIPA, ACACA, TMEM208, SOAT1 and ARID1A were generated in MDA-MB-231 cells and evaluated for response to ERX-41 using doseresponse curves using CellTiter-Glo assays in vitro. (FIGS. 37C-D) Effect of knockout of LIPA in SUM-159 (FIG. 37C) and MDA-MB436 (FIG. 37D) on dose response curve to ERX-41 using CellTiter-Glo assays in vitro. (FIGS. 37E-F) Dose response curves of SUM-159 parental cells and clones with LIPA KO to thapsigargin (FIG. 37E) and paclitaxel (FIG. 37F). (FIGS. 37G-H) Live cell imaging studies with SYTOX Green to examine ability of 1 μM ERX-41 to induce cell death in parental SUM-159 and SUM-159 clones with LIPA KO, with quantitation (FIG. 37G) and time-lapsed photomicrographs at 0 h and 30 h ((FIG. 37H). (FIGS. 37I-J) SCID mice were implanted with either parental SUM-159 or SUM-159 clones with LIPA KO (n=6, each group) and tumors were allowed to establish (150 mm^3). Following daily intraperitoneal administration of 10 mg/kg ERX-41, tumor sizes were measured and graphed (FIG. 37I), along with mice body weights (FIG. 37J). *p<0.05. **p<0.01; ***p<0.001.
The molecular target of ERX-41 in TNBC is LIPA. […] Knockout clones of LIPA, SLC5A3, SMAP2, TMEM208, SOAT1 and ARID1A were generated in multiple TNBC cells and evaluated for response to ERX-41.

In the case of CC(C)COc1cc(C(=O)Nc2ccc(C(=O)N[C@H]3CC[C@H](C)CC3)cc2OCC(C)C)ccc1NC(=O)c1ccc([N+](=O)[O-])c(OCCO)c1 [TK41], the “induction of ER stress and UPR proteins (p-PERK, IRE1a, eiF2a, CHOP)” value (TNBC cells; 1 μM, western blotting, TNBC cells) was “induces ER stress and downstream UPR pathways”, the “induction of endoplasmic reticulum stress” value (TNBC cells; TNBC MD-MBA-231 cells) was “induce endoplasmic reticulum stress” and the “dilation of the ER by electron microscopy” value (TNBC cells; within 4 h of treatment, TNBC cells) was “induced dramatic dilation of the ER”. The “cytotoxic response after knockout of LIPA” value (TNBC cells with LIPA KO) was “abrogate the cytotoxic response”.

— patent publication US12275685B2, “Oligo-benzamide analogs and their use in cancer treatment” (Board of Regents, The University of Texas System, priority 2018, dated 2025)
